Laboratory results from patent EP1222921B1, “Pharmaceutical compositions of tizoxanide and/or nitazoxanide” (Romark Laboratories, L.C., priority 1997, dated 1998).
Converted amounts (≈) assume the structure as drawn. “And” between values parts separate entries of the source, which are not always exact repeats. Equal values may be shown once.

Assays:
[1] = tested on: C. parvum oocysts; assay: Intact C. parvum oocyst assay (Example III), immunofluorescence; assay type: cell-based, Cryptosporidium parvum; conditions: for Parasite - Mean parasite count/field (12 fields analyzed) / %Inhib - Percent inhibitation of parasite infection: 48 hr.; for %Inhib - Percent inhibitation of parasite infection: listed as NTZ
Experimental: Each concentration of nitazoxanide and the media controls contained 0.025% DMSO as a constant. The experiment used a cell culture of MDBKF5D2 Cells grown in 7 mm chambers, and as Cryptosporidium parvum: GCH1 oocysts, 5 X 10^4 per well, and was conducted to compare paromomycin (positive control) against nitazoxanide (experimental drug). […] 5 x 104 C. parvum oocysts per well are incubated in the pre-mentioned concentrations of nitazoxanide at 37°C (8% CO2) on confluent MDBKF5D2 cell monolayers. The level of infection in each well was determined and computer analyzed by an immunofluorescence assay at 48 hours. […] (Medium control count - Drug test count)/(Medium control count)x 100 [formula] Conc. - µg/ml; Parasite - Mean parasite count/field (12 fields analyzed); %Inhib - Percent inhibitation of parasite infection; % Tox- Percent toxicity to cells by the drug.

[2] = Solubility in DMSO; assay type: physicochemical; conditions: in 1 ml DMSO
Experimental: Nitazoxanide (NTZ), the compound of formula (II), is the generic name for 2-(acetolyloxy)-N-(5-nitro 2-thiazoly) benzamide, a compound first synthesized by Rossignol and Cavier in 1975. 2 mg of nitazoxanide can be dissolved in 1 ml DMSO. Nitazoxanide is easily absorbed orally.

[3] = tested on: mature (13-week/old) Schistosoma hematobium; assay: Experimentally infected mice, worm count; assay type: in vivo
Experimental: (§1) Nitazoxanide was tested against Schistosoma mansoni and Schistosoma hematobium in experimentally infected mice. Forty (40) white mice, weighing 30 to 50 grams were allocated to two treatment groups of 20 animal per group. The first group was infected with 300-500 Schistosoma mansoni free active cercariae suspended in 0.25 ml of distilled water and administered to each mouse by intraperitoneal injection. The second group was infected in the same manner but with Schistosoma hemotobium cercariae. These two groups were then kept for a total of 70 days in the laboratory. Seventy days after infection of the animals, ten mice from each group were treated with nitazoxanide as a 1.3 mg oral dose administered, morning and evening, for 7 consecutive days. Seven days after the end of treatment tall mice were sacrificed and the worms were extracted from the liver of each animal by perfusion using tepid water (37°C). The extracted schistosomes were counted for all treatment and control animals. The efficacy of nitazoxanide was calculated busing the formula indicated below: % efficacy(a - b)/(a)x 100 [formula] Where: • a = the number of schistosomes recovered from feces in the control animals • b = the number of schistosomes recovered from feces in the treated animals

[4] = tested on: mature (13-week/old) Schistosoma mansoni; assay: Experimentally infected mice, worm count; assay type: in vivo
Experimental: as §1

[5] = tested on: RH strain of Toxoplasma gondii; assay: Toxoplasma gondii growth in MRC5 fibroblast cultures, ELISA; assay type: cell-based
[6] = tested on: Cryptosporidium parvum; assay: Experimentally infected suckling mice, oocyst shedding; assay type: in vivo
Experimental: The effect of nitazoxanide was tested against Cryptosporidium parvum in experimentally infected mice. Nitazoxanide was supplied by Romark Laboratories, L.C. in Tampa, Florida. The total human dose (1 g/day for 7 days i.e. 7 g) was modified for use for mice according to Paget and Barnes. The human dose was multiplied by 0.0026 for mice (weighing approximately 20 grams) to obtain he total amount of the drug needed for each host morning and evening for 7 consecutive days. […] The doses were administered by mouth using a plastic syringe equipped with around tip needle. Twenty (20) 2-day old suckling mice were infected by oral administration of 100,000 oocysts of Crytospordium parvum obtained from infected calves. Before being administered to mice, the oocysts were concentrated using a sugar solution according to the technique described by […]. Rectal swabs from each mouse were obtained and examined daily using the modified […] staining technique described by Graczyk et al. Oocysts shedding appeared in feces 2 days after the oral infection of the animals. On the third day following infection of the animals, 10 mice received 1.3 mg of nitazoxanide, morning and evening, for 7 consecutive days while the 10 remaining mice were kept as untreated controls. Rectal swabs were obtained daily for each of the 7 days of treatment and for each of the 7 days following the end of treatment. The oocysts were suspended in oil and counted per 100 fields under a microscope.

[7] = 10 mice, 2.6 mg/day for 7 consecutive days
[8] = individual mice No. 1-10, 1.3 mg oral morning and evening for 7 consecutive days, 70 days after infection
[9] = total of 10 mice, 2.6 mg/day for 7 consecutive days

Compound: CC(=O)Oc1ccccc1C(=O)Nc1ncc([N+](=O)[O-])s1 [Nitazoxanide, 2-(acetolyloxy)-N-(5-nitro 2-thiazoly) benzamide]
- Parasite - Mean parasite count/field (12 fields analyzed) ([1]; Conc 0.01 µg/ml, 0.025% DMSO): 714.33
- Parasite - Mean parasite count/field (12 fields analyzed) ([1]; Conc 0.1 µg/ml, 0.025% DMSO): 643.42
- Parasite - Mean parasite count/field (12 fields analyzed) ([1]; Conc 1 µg/ml, 0.025% DMSO): 39.67
- %Inhib - Percent inhibitation of parasite infection ([1]; Conc 1 µg/ml, 0.025% DMSO): 93.69%
- Parasite - Mean parasite count/field (12 fields analyzed) ([1]; Conc 10 µg/ml, 0.025% DMSO): 11.75
- %Inhib - Percent inhibitation of parasite infection ([1]; Conc 10 µg/ml, 0.025% DMSO): 98.13%
- inhibition at 0.01 µg/mL ([1]; Cryptosporidium parvum, 48 h, Conc 0.01 µg/ml, 0.025% DMSO, read-out: %Inhib - Percent inhibitation of parasite infection): ≤ 0%
- inhibition at 0.1 µg/mL ([1]; Cryptosporidium parvum, 48 h, Conc 0.1 µg/ml, 0.025% DMSO, read-out: %Inhib - Percent inhibitation of parasite infection): ≤ 0%
- inhibition at 1 µg/mL ([1]; Cryptosporidium parvum, 48 h, Conc 1 µg/ml, 0.025% DMSO, read-out: %Inhib - Percent inhibitation of parasite infection): 94%
- inhibition at 10 µg/mL ([1]; Cryptosporidium parvum, 48 h, Conc 10 µg/ml, 0.025% DMSO, read-out: %Inhib - Percent inhibitation of parasite infection): 98%
- lowest concentration giving more than 90% of inhibition ([1]; in vitro against Cryptosporidium parvum): 1 µg/mL
- amount that can be dissolved [2]: 2 mg
- No. of flukes removed from liver of Treated Mice, Mean/Mouse [3, 7]: 2.4
- No. of flukes removed from liver of Treated Mice [3, 8]: 2 (5×) and 0.0 and 3 (2×) and 4 (2×)
- No. of flukes removed from liver of Treated Mice, Total [3, 9]: 24
- Efficacy (worm reduction) ([3]; versus control animals, 2.6 mg/day for 7 consecutive days): 82.85%
- No. of flukes removed from liver of Treated Mice, Mean/Mouse [4, 7]: 9.9
- No. of flukes removed from liver of Treated Mice [4, 8]: 12 and 8 and 7 and 10 (3×) and 9 (2×) and 11 and 13
- No. of flukes removed from liver of Treated Mice, Total [4, 9]: 99
- Efficacy (worm reduction) ([4]; versus control mice, 2.6 mg/day for 7 consecutive days): 59.91%
- concentration with significant effect (inhibition) ([5]; 72 hours): ≥ 0.6 mg/L
- concentrations with complete inhibition of Toxoplasma growth ([5]; 72 hours): ≥ 2.5 mg/L
- IC50 ([5]; Toxoplasma gondii, MRC5, 72 hours, estimated from regression analysis, read-out: 50% inhibitory concentration): 1.2 mg/L (≈ 3.91 µM)
- concentrations at which a marked inhibition of Toxoplasma growth could be observed ([5]; alteration of the parasitophorous vacuole, no marked alteration of the parasite itself): approximately 1.2 mg/L
- microscopic examination of the monolayer ([5]; concentration of 1.25 mg/L): induced cytopathic effect on the parasitized cells, with enlargement of the parasitophorous vacuole and reduction of the number of the intra-celular parasites
- oocyst shedding at the end of treatment ([6]; Day 7, 2.6 mg/day by mouth for 7 consecutive days, suckling mice): complete reduction of the oocyst shedding
- fecal examinations after the end of treatment ([6]; days 3 and 7 after the end of treatment): negative examinations
- treated mice with decreased oocysts shedding ([6]; end of the third day of treatment, 2.6 mg/day by mouth for 7 consecutive days, suckling mice): 6 of the 10
